Tested on: Glaucoma patients
Test: Clinical study: subtenon injection of MMC versus MMC-soaked sponges in trabeculectomy
Description: A clinical study was set up to compare the efficacy and safety of subtenon injection of mitomycin C (MMC) using the instant injection system and kits, with that of conventional application of MMC-soaked sponges in trabeculectomy. Glaucoma patients were randomized into two groups; group 1 received a subtenon injection of 0.1 mL of 0.01% MMC by the second sterile syringe, while group 2 received 0.02% MMC-soaked Weck-Cel® sponges to physically disperse the MMC. The injection was placed in the far posterior fornix on a 30-gauge needle prior to the conjunctival peritomy for trabeculectomy. Primary outcome measure is intraocular pressure (IOP), and secondary outcome measures are endothelial cell count (ECC) changes and bleb morphology according to the Indiana Bleb Appearance Grading Scale. Outcome measures were compared at 1, 3 and 6 months postoperatively. Complete and qualified success was defined as IOP within 6-15 mm Hg without and with medications at month 6, respectively.
Data was to be presented in the form of mean, SD, median and range, frequency and percentage values. Normal distribution of data was assessed by Kolmogrov-Smirnov test and Q-Q plot. To evaluate differences between the study groups, χ2, t-test and Mann-Whitney tests. Wilcoxon singed-rank test and the linear mixed model were used to assess changes within the study groups. The Wilcoxon singed-rank test is followed by Bonferroni correction to consider multiple comparisons. To compare the groups adjusted for baseline values, analysis of covariance and Poisson regression (based on the type of response) were used. All statistical analyses were performed using SPSS software (IBM SPSS Statistics for Windows, V. 23.0, Released 2014, IBM, Armonk, New York, USA). All tests were two-sided and p values less than 0.05 were considered statistically significant.

CO[C@@]12[C@H](COC(N)=O)C3=C(C(=O)C(C)=C(N)C3=O)N1C[C@@H]1N[C@@H]12 [MMC, mitomycin C]
dependence on glaucoma medications (MMC injection compared to cellulose sponge delivery, trabeculectomy): decreased | bleb morphology (Indiana Bleb Appearance Grading Scale) (MMC injection compared to trabeculectomies performed with sponges): more favorable | overall study conclusion for MMC injection versus sponge delivery (MMC injection through the instant apparatus and kits): non-inferiority with improved predictability | intraocular pressure (IOP) (subtenon injection of 0.1 mL of 0.01% MMC compared to 0.02% MMC-soaked cellulose sponges, trabeculectomy, 1, 3 and 6 months postoperatively): lower

Reference: patent US12629319B2, “Injection apparatus and method of use” (MOBIUS THERAPEUTICS, INC., priority 2020, dated 2026)
